Assay results: patent US10758534B2 (Vertex Pharmaceuticals Incorporated, priority 2014, dated 2020)

These molecules were tested against T1, F508del (Homo sapiens, UniProt P13569, DEL508-508) (assay: Protocol 1: membrane potential optical assay (FLIPR III, voltage sensing dye), identification of potentiator compounds). Settings: Table 3, compounds of Table 1.
T1 construct: expressed in transfected cells
Type: cell-based
Procedure, shortened: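 Gating potentiation is read as a membrane-potential fluorescence change (FLIPR III, voltage-sensing dye) after one forskolin addition under a Cl− gradient, with gluconate replacing chloride, pH 7.4. Cells are F508del-expressing NIH3T3 mouse fibroblasts held 24 h at 27 °C and exposed to compound before dye loading.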

T1 sequence (P13569 with tags, fused parts or gaps DEL508-508): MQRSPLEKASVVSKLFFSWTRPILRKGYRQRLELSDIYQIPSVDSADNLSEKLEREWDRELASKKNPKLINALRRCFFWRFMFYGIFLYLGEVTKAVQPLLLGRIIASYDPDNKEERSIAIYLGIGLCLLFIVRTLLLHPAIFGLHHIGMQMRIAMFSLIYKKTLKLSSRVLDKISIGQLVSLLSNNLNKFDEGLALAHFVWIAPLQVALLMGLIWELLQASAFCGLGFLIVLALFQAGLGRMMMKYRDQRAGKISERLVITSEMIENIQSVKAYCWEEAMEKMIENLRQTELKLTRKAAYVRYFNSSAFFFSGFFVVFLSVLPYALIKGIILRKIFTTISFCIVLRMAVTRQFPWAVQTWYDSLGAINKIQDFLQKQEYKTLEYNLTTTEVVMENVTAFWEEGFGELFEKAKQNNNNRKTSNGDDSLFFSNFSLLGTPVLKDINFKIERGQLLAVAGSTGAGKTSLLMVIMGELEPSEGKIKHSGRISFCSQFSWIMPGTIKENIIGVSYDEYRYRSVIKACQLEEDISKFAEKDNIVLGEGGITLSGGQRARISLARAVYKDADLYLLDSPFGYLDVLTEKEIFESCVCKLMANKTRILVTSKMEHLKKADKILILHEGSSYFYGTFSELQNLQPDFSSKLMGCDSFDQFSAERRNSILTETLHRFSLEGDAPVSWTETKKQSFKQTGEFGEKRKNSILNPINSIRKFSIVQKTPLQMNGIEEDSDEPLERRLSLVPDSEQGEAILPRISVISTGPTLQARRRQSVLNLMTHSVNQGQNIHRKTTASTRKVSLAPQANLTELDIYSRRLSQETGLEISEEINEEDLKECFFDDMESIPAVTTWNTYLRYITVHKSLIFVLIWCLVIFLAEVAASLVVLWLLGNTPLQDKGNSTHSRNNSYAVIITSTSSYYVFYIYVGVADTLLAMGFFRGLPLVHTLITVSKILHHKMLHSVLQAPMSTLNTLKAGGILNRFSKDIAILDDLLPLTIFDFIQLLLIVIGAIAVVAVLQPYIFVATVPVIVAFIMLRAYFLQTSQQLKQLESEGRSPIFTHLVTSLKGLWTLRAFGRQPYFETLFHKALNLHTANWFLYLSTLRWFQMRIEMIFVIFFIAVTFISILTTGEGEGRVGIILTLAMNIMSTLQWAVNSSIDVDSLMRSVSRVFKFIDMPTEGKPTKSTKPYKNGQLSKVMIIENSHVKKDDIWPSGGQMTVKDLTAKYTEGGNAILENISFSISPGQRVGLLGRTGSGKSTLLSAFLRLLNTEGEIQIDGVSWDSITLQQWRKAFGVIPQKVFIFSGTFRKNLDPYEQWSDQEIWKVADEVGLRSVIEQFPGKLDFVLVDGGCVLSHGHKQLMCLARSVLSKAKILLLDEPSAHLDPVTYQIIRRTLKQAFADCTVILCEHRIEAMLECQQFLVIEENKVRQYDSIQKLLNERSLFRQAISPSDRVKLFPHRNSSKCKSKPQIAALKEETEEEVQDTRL

| EC30 | Structure (SMILES) |
| --- | --- |
| ++ (“++” means between 3 uM and 10 uM) | CC1(C)CN(c2nccc(C(F)(F)F)c2C(=O)NS(=O)(=O)c2cccc(N)n2)C(C)(C)C1 [Compound 1658, N-[(6-amino-2-pyridyl)sulfonyl]-2-(2,2,4,4-tetramethylpyrrolidin-1-yl)-4-(trifluoromethyl)pyridine-3-carboxamide] |
| +++ (“+++” means <3 uM) | CC(C)Oc1ccc(-c2ccc(C(=O)NS(=O)(=O)c3cccnc3N)c(N3C[C@@H](C)CC3(C)C)n2)cn1 [Compound 1660, N-[(2-amino-3-pyridyl)sulfonyl]-6-(6-isopropoxy-3-pyridyl)-2-[(4S)-2,2,4-trimethylpyrrolidin-1-yl]pyridine-3-carboxamide] |
| ++ (“++” means between 3 uM and 10 uM) | CCOc1cccc2c1CN(Cc1ccc(OC(C)C)nc1)C2(C)C(=O)NS(=O)(=O)c1cccc(N)n1 (centres unmarked) [Compound 1662, N-[(6-amino-2-pyridyl)sulfonyl]-4-ethoxy-2-[(6-isopropoxy-3-pyridyl)methyl]-1-methyl-isoindoline-1-carboxamide] |
| +++ (“+++” means <3 uM) | C[C@@H]1CN(c2nc(-c3cccc(OCC(C)(C)C)n3)ccc2C(=O)NS(=O)(=O)c2cccc(N)n2)C(C)(C)C1 [Compound 1663, N-[(6-amino-2-pyridyl)sulfonyl]-6-[6-(2,2-dimethylpropoxy)-2-pyridyl]-2-[(4S)-2,2,4-trimethylpyrrolidin-1-yl]pyridine-3-carboxamide] |
| +++ (“+++” means <3 uM) | C[C@@H]1CN(c2nc(C3=CCC(C(F)(F)F)CC3)ccc2C(=O)NS(=O)(=O)c2cccc(N)n2)C(C)(C)C1 (stereo partly drawn) [Compound 1664, N-[(6-amino-2-pyridyl)sulfonyl]-6-[4-(trifluoromethyl)cyclohexen-1-yl]-2-[(4S)-2,2,4-trimethylpyrrolidin-1-yl]pyridine-3-carboxamide] |
| +++ (“+++” means <3 uM) | C[C@@H]1CN(c2nc(C(C)(C)C)c(/C=C/C3CC3)cc2C(=O)NS(=O)(=O)c2cccc(N)n2)C(C)(C)C1 [Compound 1665, N-[(6-amino-2-pyridyl)sulfonyl]-6-tert-butyl-5-[(E)-2-cyclopropylvinyl]-2-[(4S)-2,2,4-trimethylpyrrolidin-1-yl]pyridine-3-carboxamide] |
| +++ (“+++” means <3 uM) | CCOc1cccc2c1CN(Cc1c(C)cc(C)cc1C)C2(C)C(=O)NS(=O)(=O)c1cccc2[nH]ccc12 (centres unmarked) [Compound 1666, 4-ethoxy-N-(1H-indol-4-ylsulfonyl)-1-methyl-2-[(2,4,6-trimethylphenyl)methyl]isoindoline-1-carboxamide] |
| +++ (“+++” means <3 uM) | CCOc1cccc2c1CN(Cc1c(C)cc(C)cc1C)C2(C)C(=O)NS(=O)(=O)c1cccnc1 (centres unmarked) [Compound 1669, 4-ethoxy-1-methyl-N-(3-pyridylsulfonyl)-2-[(2,4,6-trimethylphenyl)methyl]isoindoline-1-carboxamide] |
| ++ (“++” means between 3 uM and 10 uM) | Cc1cc(C)c(Cn2nc(C(C)(C)C)cc2C(=O)NS(=O)(=O)c2ccc(CN)cc2)c(C)c1 [Compound 1670, N-[4-(aminomethyl)phenyl]sulfonyl-5-tert-butyl-2-[(2,4,6-trimethylphenyl)methyl]pyrazole-3-carboxamide] |
| +++ (“+++” means <3 uM) | Cc1cc(OC(C)C)cc(-c2ccc(C(=O)NS(=O)(=O)c3cccc(N)n3)c(N3C[C@@H](C)CC3(C)C)n2)c1 [Compound 1671, N-[(6-amino-2-pyridyl)sulfonyl]-6-(3-isopropoxy-5-methyl-phenyl)-2-[(4S)-2,2,4-trimethylpyrrolidin-1-yl]pyridine-3-carboxamide] |
| +++ (“+++” means <3 uM) | C[C@@H]1CN(c2nc(C3CCC(C(F)(F)F)CC3)ccc2C(=O)NS(=O)(=O)c2cccc(N)n2)C(C)(C)C1 (stereo partly drawn) [Compound 1672, N-[(6-amino-2-pyridyl)sulfonyl]-6-[4-(trifluoromethyl)cyclohexyl]-2-[(4S)-2,2,4-trimethylpyrrolidin-1-yl]pyridine-3-carboxamide] |
| +++ (“+++” means <3 uM) | C[C@@H]1CN(c2nc(N3C[C@@H](C)CC3(C)C)c(C(=O)NS(=O)(=O)c3cccc(N)n3)cc2F)C(C)(C)C1 [Compound 1673, N-[(6-amino-2-pyridyl)sulfonyl]-5-fluoro-2,6-bis[(4S)-2,2,4-trimethylpyrrolidin-1-yl]pyridine-3-carboxamide] |
| +++ (“+++” means <3 uM) | CC(C)Oc1cc(-c2ccc(C(=O)NS(=O)(=O)c3cccc(N)n3)c(N3C[C@@H](C)CC3(C)C)n2)cc(C(F)(F)F)c1 [Compound 1674, N-[(6-amino-2-pyridyl)sulfonyl]-6-[3-isopropoxy-5-(trifluoromethyl)phenyl]-2-[(4S)-2,2,4-trimethylpyrrolidin-1-yl]pyridine-3-carboxamide] |
| +++ (“+++” means <3 uM) | CCOc1cccc2c1CN(Cc1c(C)cccc1C)C2(C)C(=O)NS(=O)(=O)c1cccc(F)n1 (centres unmarked) [Compound 1676, 2-[(2,6-dimethylphenyl)methyl]-4-ethoxy-N-[(6-fluoro-2-pyridyl)sulfonyl]-1-methyl-isoindoline-1-carboxamide] |

| Structure (SMILES) | EC30 |
| --- | --- |
| CC(C)COc1cc(F)cc(-c2ccc(C(=O)NS(=O)(=O)c3cccc(N)n3)c(N3CC4CCC3CC4)n2)c1 [Compound 1657, N-[(6-amino-2-pyridyl)sulfonyl]-2-(3-azabicyclo[2.2.2]octan-3-yl)-6-(3-fluoro-5-isobutoxy-phenyl)pyridine-3-carboxamide] | +++ (“+++” means <3 uM) |
| Cc1ccc(OCC(C)C)nc1-c1ccc(C(=O)NS(=O)(=O)c2cccc(N)n2)c(N2CC(C)CC2(C)C)n1 (centres unmarked) [Compound 1659, N-[(6-amino-2-pyridyl)sulfonyl]-6-(6-isobutoxy-3-methyl-2-pyridyl)-2-(2,2,4-trimethylpyrrolidin-1-yl)pyridine-3-carboxamide] | +++ (“+++” means <3 uM) |
| CC(C)COc1cc(F)cc(-c2ccc(C(=O)NS(=O)(=O)c3cccc(N)n3)c(OCC3CCCO3)n2)c1 (centres unmarked) [Compound 1661, N-[(6-amino-2-pyridyl)sulfonyl]-6-(3-fluoro-5-isobutoxy-phenyl)-2-(tetrahydrofuran-2-ylmethoxy)pyridine-3-carboxamide] | +++ (“+++” means <3 uM) |
| CC(C)COc1cc(F)cc(-c2ccc(C(=O)NS(=O)(=O)c3cccc(N)n3)c(C3=CCC(C(F)(F)F)CC3)n2)c1 (centres unmarked) [Compound 1667, N-[(6-amino-2-pyridyl)sulfonyl]-6-(3-fluoro-5-isobutoxy-phenyl)-2-[4-(trifluoromethyl)cyclohexen-1-yl]pyridine-3-carboxamide] | ++ (“++” means between 3 uM and 10 uM) |
| CC(C)COc1cc(F)cc(-c2ccc(C(=O)NS(=O)(=O)c3cccc(N)n3)c(OCC3(C)CC3)n2)c1 [Compound 1668, N-[(6-amino-2-pyridyl)sulfonyl]-6-(3-fluoro-5-isobutoxy-phenyl)-2-[(1-methylcyclopropyl)methoxy]pyridine-3-carboxamide] | +++ (“+++” means <3 uM) |
| CC(C)COc1cc(F)cc(-c2ccc(C(=O)NS(=O)(=O)c3cccc(N)n3)c(N3CC(C)(C)OCC3(C)C)n2)c1 [Compound 1675, N-[(6-amino-2-pyridyl)sulfonyl]-6-(3-fluoro-5-isobutoxy-phenyl)-2-(2,2,5,5-tetramethylmorpholin-4-yl)pyridine-3-carboxamide] | ++ (“++” means between 3 uM and 10 uM) |
